Assay [1] deals with recombinant Plk1 (Homo sapiens, UniProt P53350). Description: In Vitro Plk1 Enzyme Assay (SPA, GST-Cdc25C phosphorylation). As to conditions: ATP 64 nM, 90 minutes, read-out: IC50 (Plk1 enzyme inhibition). The format is biochemical.
The test system of assay [2] is human colon tumour cell line HT29. Description: Cellular Assay (phosphohistone H3 Ser10 mitotic marker, HT29). The format is cell-based. Particulars: HT-29, 24 h, HT29 cells, read-out: IC50 (cellular assay, phosphohistone H3).
Method: Chromosome condensation in mitosis is accompanied by phosphorylation of histone H3 on serine 10.
After 24 hours, cells were fixed in 3.7% (v/v) formaldehyde then permeabilised and blocked for 10 minutes in 100 μl 0.5% (v/v) Triton X-100, 1% (w/v) bovine serum albumin (BSA) in phosphate buffered saline (PBS). […] The raw assay data were analysed by non-linear regression analysis and used to determine an IC50 value for each compound.

The source of these data is US7709471B2, “Compounds” (AstraZeneca AB, priority 2006, dated 2010).

A value given as a limit tells only on which side of the number the result lay.

Chain of recombinant Plk1 (P53350 whole entry): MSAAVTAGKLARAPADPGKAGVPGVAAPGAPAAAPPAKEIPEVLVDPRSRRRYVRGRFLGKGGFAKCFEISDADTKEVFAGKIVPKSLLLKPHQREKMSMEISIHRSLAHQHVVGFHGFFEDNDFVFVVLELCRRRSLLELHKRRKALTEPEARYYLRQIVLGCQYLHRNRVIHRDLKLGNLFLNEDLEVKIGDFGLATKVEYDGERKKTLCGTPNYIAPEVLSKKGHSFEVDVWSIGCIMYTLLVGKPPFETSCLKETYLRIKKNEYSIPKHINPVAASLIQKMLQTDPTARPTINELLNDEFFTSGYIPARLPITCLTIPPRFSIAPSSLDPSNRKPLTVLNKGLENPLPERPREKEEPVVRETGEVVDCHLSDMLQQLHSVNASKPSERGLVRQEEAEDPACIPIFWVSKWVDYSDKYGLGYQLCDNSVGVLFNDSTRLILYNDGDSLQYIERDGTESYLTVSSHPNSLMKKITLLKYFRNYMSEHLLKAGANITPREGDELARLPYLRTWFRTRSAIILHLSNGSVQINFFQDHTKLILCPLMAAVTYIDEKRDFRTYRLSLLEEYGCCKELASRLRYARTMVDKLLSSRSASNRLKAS

For `CN1CCC(NC(=O)c2ccc(Nc3ncc4c(n3)N(C3CCCC3)CCC(=O)N4C)c(OC(F)(F)F)c2)CC1` [Example 199, 4-[(6-cyclopentyl-2-methyl-3-oxo-2,6,8,10-tetrazabicyclo[5.4.0]undeca-8,10,12-trien-9-yl)amino]-N-(1-methyl-4-piperidyl)-3-(trifluoromethoxy)benzamide], the results for the IC50 in assay [1] and in assay [2] were less than 100000 nM and less than 300 nM, respectively.
Turning to `CCOc1cc(C(=O)NC2CCN(C)CC2)ccc1Nc1ncc2c(n1)N(C1CCCC1)CCC(=O)N2C` [Example 200, 4-[(6-cyclopentyl-2-methyl-3-oxo-2,6,8,10-tetrazabicyclo[5.4.0]undeca-8,10,12-trien-9-yl)amino]-3-ethoxy-N-(1-methyl-4-piperidyl)benzamide], the IC50 in assay [1] is less than 1000 nM; in assay [2], less than 300 nM.
For `CC(C)N1CCC(=O)N(C)c2cnc(Nc3ccc(C(=O)NC4CCN(C)CC4)cc3Cl)nc21` [Example 203, 3-chloro-4-[(2-methyl-3-oxo-6-propan-2-yl-2,6,8,10-tetrazabicyclo[5.4.0]undeca-7,9,11-trien-9-yl)amino]-N-(1-methyl-4-piperidyl)benzamide] the same measures were less than 300 nM and less than 300 nM.
As to `COc1cc(C(=O)NCCN2CCCCC2)ccc1Nc1ncc2c(n1)N(C(C)C)CCC(=O)N2C` [Example 205, 3-methoxy-4-[(2-methyl-3-oxo-6-propan-2-yl-2,6,8,10-tetrazabicyclo[5.4.0]undeca-7,9,11-trien-9-yl)amino]-N-[2-(1-piperidyl)ethyl]benzamide], the IC50 is less than 100000 nM in assay [1] and less than 300 nM in assay [2].
For `COc1cc(C(=O)NC2CN3CCC2CC3)ccc1Nc1ncc2c(n1)N(C(C)C)CCC(=O)N2C` (centres unmarked) [Example 206, N-(1-azabicyclo[2.2.2]oct-8-yl)-3-methoxy-4-[(2-methyl-3-oxo-6-propan-2-yl-2,6,8,10-tetrazabicyclo[5.4.0]undeca-7,9,11-trien-9-yl)amino]benzamide] the same measures were less than 300 nM and less than 300 nM.
For `COc1cc(C(=O)NCCN(C)C)ccc1Nc1ncc2c(n1)N(C(C)C)CCC(=O)N2C` [Example 207, N-(2-dimethylaminoethyl)-3-methoxy-4-[(2-methyl-3-oxo-6-propan-2-yl-2,6,8,10-tetrazabicyclo[5.4.0]undeca-7,9,11-trien-9-yl)amino]benzamide] the same measures were less than 300 nM and less than 300 nM.
For `COc1cc(C(=O)NCC(C)(C)CN(C)C)ccc1Nc1ncc2c(n1)N(C(C)C)CCC(=O)N2C` [Example 208, N-(3-dimethylamino-2,2-dimethyl-propyl)-3-methoxy-4-[(2-methyl-3-oxo-6-propan-2-yl-2,6,8,10-tetrazabicyclo[5.4.0]undeca-7,9,11-trien-9-yl)amino]benzamide] the same measures were less than 300 nM and less than 300 nM.
As for `COc1cc(C(=O)NCCCCN2CCCC2)ccc1Nc1ncc2c(n1)N(C(C)C)CCC(=O)N2C` [Example 209, 3-methoxy-4-[(2-methyl-3-oxo-6-propan-2-yl-2,6,8,10-tetrazabicyclo[5.4.0]undeca-7,9,11-trien-9-yl)amino]-N-(4-pyrrolidin-1-ylbutyl)benzamide], the 50% inhibitory concentration (IC50) in assay [1] and in assay [2] was less than 300 nM throughout.
In the case of `CCN1CCC(=O)N(C)c2cnc(Nc3ccc(C(=O)NC4CCN(C)CC4)cc3OC)nc21` [Example 210, 4-[(6-ethyl-2-methyl-3-oxo-2,6,8,10-tetrazabicyclo[5.4.0]undeca-7,9,11-trien-9-yl)amino]-3-methoxy-N-(1-methyl-4-piperidyl)benzamide], the IC50 in assay [1] and in assay [2] was less than 300 nM throughout.
For the molecule `COc1cc(C(=O)NC2CCN(C)CC2)ccc1Nc1ncc2c(n1)N(CC1CC1)CCC(=O)N2C` [Example 213, 4-[[6-(cyclopropylmethyl)-2-methyl-3-oxo-2,6,8,10-tetrazabicyclo[5.4.0]undeca-8,10,12-trien-9-yl]amino]-3-methoxy-N-(1-methyl-4-piperidyl)benzamide], the IC50 in assay [1] and in assay [2] was less than 300 nM throughout.
In the case of `COc1cc(C(=O)NC2CCN(C)CC2)ccc1Nc1ncc2c(n1)N(Cc1ccccc1)CCC(=O)N2C` [Example 215, 4-[(6-benzyl-2-methyl-3-oxo-2,6,8,10-tetrazabicyclo[5.4.0]undeca-8,10,12-trien-9-yl)amino]-3-methoxy-N-(1-methyl-4-piperidyl)benzamide], the values for the IC50 in assay [1] and in assay [2] were less than 1000 nM and less than 30000 nM, respectively.
As for `CC(C)N1CCC(=O)N(C)c2cnc(Nc3ccc(C(=O)NCCN4CCOCC4)cc3)nc21` [Example 218, 4-[(2-methyl-3-oxo-6-propan-2-yl-2,6,8,10-tetrazabicyclo[5.4.0]undeca-7,9,11-trien-9-yl)amino]-N-(2-morpholin-4-ylethyl)benzamide], the results for the IC50 in assay [1] and in assay [2] were less than 300 nM and less than 30000 nM, respectively.
For `COc1cc(C(=O)NCCN2CCOCC2)ccc1Nc1ncc2c(n1)N(C(C)C)CCC(=O)N2C` [Example 219, 3-methoxy-4-[(2-methyl-3-oxo-6-propan-2-yl-2,6,8,10-tetrazabicyclo[5.4.0]undeca-7,9,11-trien-9-yl)amino]-N-(2-morpholin-4-ylethyl)benzamide] the same measures were less than 300 nM and less than 1000 nM.
For `COc1cc(C(=O)NCCN2CCOCC2)ccc1Nc1ncc2c(n1)N(c1ccccc1)CCC(=O)N2C` [Example 220, 3-methoxy-4-[(2-methyl-3-oxo-6-phenyl-2,6,8,10-tetrazabicyclo[5.4.0]undeca-8,10,12-trien-9-yl)amino]-N-(2-morpholin-4-ylethyl)benzamide] the same measures were less than 1000 nM and less than 30000 nM.
The corresponding values for `COc1cc(C(=O)NC2CCN(C)CC2)ccc1Nc1ncc2c(n1)N(c1ccccc1)CCC(=O)N2C` [Example 221, 3-methoxy-4-[(2-methyl-3-oxo-6-phenyl-2,6,8,10-tetrazabicyclo[5.4.0]undeca-8,10,12-trien-9-yl)amino]-N-(1-methyl-4-piperidyl)benzamide] are less than 300 nM and less than 30000 nM.
Turning to `CN(C)CC(C)(C)CNC(=O)c1ccc(Nc2ncc3c(n2)N(c2ccccc2)CCC(=O)N3C)cc1` [Example 223, N-(3-dimethylamino-2,2-dimethyl-propyl)-4-[(2-methyl-3-oxo-6-phenyl-2,6,8,10-tetrazabicyclo[5.4.0]undeca-8,10,12-trien-9-yl)amino]benzamide], the IC50 in assay [1] was less than 1000 nM; in assay [2] it was less than 30000 nM.
For `CN1CCC(NC(=O)c2ccc(Nc3ncc4c(n3)N(c3ccccc3)CCC(=O)N4C)cc2)CC1` [Example 224, 4-[(2-methyl-3-oxo-6-phenyl-2,6,8,10-tetrazabicyclo[5.4.0]undeca-8,10,12-trien-9-yl)amino]-N-(1-methyl-4-piperidyl)benzamide] the same measures were less than 300 nM and less than 30000 nM.
For the molecule `CC(C)N1CCC(=O)N(C)c2cnc(Nc3ccc(C(=O)NCCN4CCOCC4)cc3Cl)nc21` [Example 228, 3-chloro-4-[(2-methyl-3-oxo-6-propan-2-yl-2,6,8,10-tetrazabicyclo[5.4.0]undeca-7,9,11-trien-9-yl)amino]-N-(2-morpholin-4-ylethyl)benzamide], the values for the IC50 in assay [1] and in assay [2] were less than 1000 nM and less than 30000 nM, respectively.
For `COCC(C)N1CCC(=O)N(C)c2cnc(Nc3ccc(C(=O)NC4CCN(C)CC4)cc3OC)nc21` (centres unmarked) [Example 230, 3-methoxy-4-[[6-(1-methoxypropan-2-yl)-2-methyl-3-oxo-2,6,8,10-tetrazabicyclo[5.4.0]undeca-7,9,11-trien-9-yl]amino]-N-(1-methyl-4-piperidyl)benzamide], the IC50 in assay [1] was less than 1000 nM; in assay [2], less than 30000 nM.
For `COc1cc(C(=O)NC2CCN(C)CC2)ccc1Nc1ncc2c(n1)N(Cc1ccoc1)CCC(=O)N2C` [Example 231, 4-[[6-(3-furylmethyl)-2-methyl-3-oxo-2,6,8,10-tetrazabicyclo[5.4.0]undeca-8,10,12-trien-9-yl]amino]-3-methoxy-N-(1-methyl-4-piperidyl)benzamide] the same measures were less than 300 nM and less than 30000 nM.
The corresponding values for `COc1cc(C(=O)NC2CCCCC2)ccc1Nc1ncc2c(n1)N(C1CCN(C)CC1)CCC(=O)N2C` [Example 233, N-cyclohexyl-3-methoxy-4-[[2-methyl-6-(1-methyl-4-piperidyl)-3-oxo-2,6,8,10-tetrazabicyclo[5.4.0]undeca-7,9,11-trien-9-yl]amino]benzamide] are less than 1000 nM and less than 30000 nM.
The corresponding values for `COc1cc(C(=O)NC2CCN(C)CC2)ccc1Nc1ncc2c(n1)N(C1CCCC1)C(C)CC(=O)N2C` (centres unmarked) [Example 234, 4-[(6-cyclopentyl-2,5-dimethyl-3-oxo-2,6,8,10-tetrazabicyclo[5.4.0]undeca-8,10,12-trien-9-yl)amino]-3-methoxy-N-(1-methyl-4-piperidyl)benzamide] are less than 300 nM and less than 1000 nM.
In the case of `COc1cc(C(=O)NC2CCN(C)CC2)ccc1Nc1ncc2c(n1)N(C1CCCC1)CC(C)(C)C(=O)N2C` [Example 235, 4-[(2-cyclopentyl-4,4,6-trimethyl-5-oxo-2,6,9,11-tetrazabicyclo[5.4.0]undeca-7,9,11-trien-10-yl)amino]-3-methoxy-N-(1-methyl-4-piperidyl)benzamide], the half-inhibitory concentration (IC50) in assay [1] and in assay [2] was less than 300 nM each time.
As for `COc1cc(C(=O)NC2CCCN(C)C2)ccc1Nc1ncc2c(n1)N(C1CCCC1)CC(C)(C)C(=O)N2C` (centres unmarked) [Example 243, 4-[(2-cyclopentyl-4,4,6-trimethyl-5-oxo-2,6,9,11-tetrazabicyclo[5.4.0]undeca-7,9,11-trien-10-yl)amino]-3-methoxy-N-(1-methyl-3-piperidyl)benzamide], the results for the IC50 in assay [1] and in assay [2] were less than 1000 nM and less than 300 nM, respectively.
For `COCCN1CCC(NC(=O)c2ccc(Nc3ncc4c(n3)N(C3CCCC3)CC(C)(C)C(=O)N4C)c(OC)c2)CC1` [Example 244, 4-[(2-cyclopentyl-4,4,6-trimethyl-5-oxo-2,6,9,11-tetrazabicyclo[5.4.0]undeca-7,9,11-trien-10-yl)amino]-3-methoxy-N-[1-(2-methoxyethyl)-4-piperidyl]benzamide] the same measures were less than 1000 nM and less than 300 nM.
